In series [1] the test system is systemic inflammation. The note with it: mouse models of endotoxemia and necrotizing enterocolitis; cited from earlier work.
In series [2] the target is T1, TLR4 co-receptor MD-2 (Homo sapiens, UniProt Q9Y6Y9).
T1 sequence (Q9Y6Y9 19-160): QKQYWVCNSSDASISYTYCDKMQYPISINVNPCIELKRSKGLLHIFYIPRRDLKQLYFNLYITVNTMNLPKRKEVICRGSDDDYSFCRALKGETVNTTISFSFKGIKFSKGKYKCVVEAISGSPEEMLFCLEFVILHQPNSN
The note with it: cited from earlier work.

In series [3] the test system is LPS signaling. To be noted: human ileum resected from infants with NEC; cited from earlier work.
The subject of series [4] is TLR4. The note with it: enterocytes and macrophages in vitro; cited from earlier work.
Series [5] deals with LPS-induced brain injury. Kind of series: LPS-induced brain injury in a neonatal rabbit model of cerebral palsy. Format: in vivo. On the procedure:
The therapeutic efficacy of G4-PAMAM-S--S-NAC dendrimer conjugate was evaluated after two days of animal treatment with lipopolysaccharide (LPS) to induce white matter injury and hypomyelination in the developing rabbit brain (an animal model of Cerebral Palsy). […] This supports a conclusion that the G4-PAMAM-S--S-NAC traversed across the BBB. The targeted delivery of NAC from dendrimer complex to actived microglial cells improved the motor deficits and attenuated recovery from the LPS-induced brain injury in a neonatal rabbit model of cerebral palsy.
(§1) Treatment with G4-PAMAM-S--S-NAC dendrimer complexes reduced white matter injury and microglia activation. […] This activity of the dendrimer-NAC conjugates may be attributed to its ability to interfere with the early inflammatory responses by blocking or modifying the signal transduction factor NF-.kappa.B and nitrotyrosine, thereby modulating cellular activation. 6 and 8 arm PEG-NAC conjugates released 74% of NAC in the intracellular GSH concentration (2 and 10 mM), within 2 hours. At a concentration range of between 0.008-0.8 mM, the conjugates were nontoxic to the microglial cells. […] At the highest concentration (5 mM), the free drug reduced the H2O2 levels and nitrite levels by 30-40%, whereas the conjugates reduced the H2O2 and nitrite levels by more than 70%. […] PEGylated NAC is a dendrimer complex with utility for the pharmaceutical industry, as PEGs are approved for human use and this device addresses limitations of NAC and provides greater efficacy.

The conditions of series [6]: free drug; cited from earlier work.
The test system of series [7] is microglial cells. Kind of series: GSH depletion, ROS, H2O2 and NO/nitrite production. To be noted: highest concentration (5 mM). It counts as cell-based. How it is done: as §1
Series [8] has as its system TLR4-mediated inflammatory signaling. The note with it: SAR study of C34 analogs; cited from earlier work.
[9] abbreviates: compared to kits treated with saline.

Structures are written as SMILES.

Consider `CC(=O)N[C@H]1[C@@H](OC(C)C)O[C@H](COC(C)=O)[C@@H](OC(C)=O)[C@@H]1OC(C)=O` [C34], for which, in series [1], the systemic inflammation entry is given as “reduces”. Moreover, the “docking fit to hydrophobic internal pocket of MD-2” value in series [2] was “tight fit”. Moreover, the LPS signaling ex-vivo entry in series [3] is reported as “inhibited”. In series [4], the TLR4 inhibition entry is on record as “inhibits”.

With `CC(=O)N[C@@H](CS)C(=O)O` [NAC, N-acetyl cysteine], the “dose eliciting identical responses” value in series [5] (LPS-induced brain injury) is reported as 100 mg/kg. Moreover, in series [5] (setting [9]), the fetal inflammation response result is “decrease” and the motor deficits entry is given as “improvement”. In series [6], the bioavailability entry is recorded as “low” and the plasma protein binding result is recorded as “very high”. In series [7], the “reduction of H2O2 levels” value is on record as 30-40% and the “reduction of nitrite levels” value is on record as 30-40%.

`CC(=O)N[C@H]1[C@@H](OC(C)C)O[C@H](CO)[C@H](O)[C@@H]1O` [compound 17, isopropyl 2-acetamido-α-galactoside]: the “efficacy relative to C34 series” value in series [8] is reported as “more efficacious”.

These data come from patent publication US20220080056A1, “DENDRIMER COMPOSITIONS AND USE IN TREATMENT OF NECROTIZING ENTEROCOLITIS AND OTHER GASTROINTESTINAL DISORDERS” (The Johns Hopkins University, priority 2015, published 2022).
